Where “and” joins values, the source holds several entries; their conditions need not be identical. Identical values can stand only once.
Key:
Assay type in all cases: cell-based, Human
Calreticulin = experiment: FACS analysis of expression level of calreticulin on tumor cell surface; conditions: Toledo cells; for Mean Fluorescence Intensity (MFI) Calreticulin: 12 hours
Procedure: (§1) For FACS analysis, on the day of analysis (day 1), Toledo cells were seeded into 96 well plate and cultured at a density of 0.2×10^6 cells/well. Then the cells were treated with the selected small molecule therapeutic agents for 12 hours.
(§2) On day 2, cells were harvested, washed twice and then re-suspended in 100 uL FACS buffer subject to FACS analysis. For detection of the expression of calreticulin and CD47, cells were incubated with anti-calreticulin antibody and commercially available anti-CD47 antibody (BD Biosciences, Catalog number: 561249) in dark at 4° C. for 30 mins.
(§3) Then, the cells were subject to FACS analysis. Data was acquired and analyzed.

macrophages = experiment: Macrophage Viability Assay (CellTiter-Glo); conditions: for Macrophage viability (CellTiter-Glo Luminescent Cell Viability Assay): 16 hours, three replicate lines
Procedure: Then, the monocytes isolated by MACS were subsequently cultured in fresh complete medium supplemented with recombinant human granulocyte-macrophage colony-stimulating factor GM-CSF (50 ng/ml) and human recombinant IL-4 (35 ng/ml) to activate differentiated macrophages. After 6 days of culture (on day 7), cells were harvested, pooled together and counted for next use.
The cells from Example 2 were plated into a 96-well flat bottom plate at a density of 0.05×10^6 cells/well. After 2 hours of incubation, the macrophages were well attached to the plate. Then selected small molecule therapeutic agents were added to the well and cocultured for 16 hours. On day 8, macrophage viability was assessed by CellTiter-Glo® Luminescent Cell Viability Assay, according to the manufacture's instruction.

CD47 = experiment: FACS analysis of expression level of CD47 on tumor cell surface; conditions: Toledo cells; for Mean Fluorescence Intensity (MFI) CD47: 12 hours
Procedure: as §1, §2, §3

Toledo Cells = experiment: FACS-based phagocytosis assay, macrophages cocultured with Toledo cells
Procedure: FACS-based phagocytosis assays were performed to evaluate the phagocytic abilities of macrophages.
Toledo Cells (a tumor cell line, as a target) were labelled with CellTrace™ Far Red and plated into 96-well plate at a density of 0.15×10^6 cells/well for 12 hours. The Macrophages were prepared as discussed above and then labelled with CellTrace Violet. Next, the macrophages were added into the plate as an effector at an effector:target (Toledo) ratio of 1:3, giving a final density of macrophages at 0.05×10^6 cells/well. Macrophages and tumor cells were cocultured for 2-6 h at 37° C. in the presence of the indicated treatments (small molecule therapeutic agents, CD47 antibody, CD20 antibody or combinations). The incubation time depending on the phagocytosis rate, expecting phagocytosis of 5-20% cells.
Then, cells were acquired and data were analyzed.

## CC1(C)CCC(CN2CCN(c3ccc(C(=O)NS(=O)(=O)c4ccc(NCC5CCOCC5)c([N+](=O)[O-])c4)c(Oc4cnc5[nH]ccc5c4)c3)CC2)=C(c2ccc(Cl)cc2)C1 [Venetoclax]
Calreticulin; 0.008 uM
  Mean Fluorescence Intensity (MFI) Calreticulin: 117
Calreticulin; 0.04 uM
  Mean Fluorescence Intensity (MFI) Calreticulin: 258
Calreticulin; 0.2 uM
  Mean Fluorescence Intensity (MFI) Calreticulin: 471
Calreticulin; 1 uM
  Mean Fluorescence Intensity (MFI) Calreticulin: 1123
Calreticulin; 5 uM
  Mean Fluorescence Intensity (MFI) Calreticulin: 2533
Calreticulin; dose of 5 μM
  increase of the expression level of calreticulin: ~120 folds
macrophages; Cpd 0.002 uM
  Macrophage viability (CellTiter-Glo Luminescent Cell Viability Assay): 5968 and 6024 and 5856
macrophages; Cpd 0.008 uM
  Macrophage viability (CellTiter-Glo Luminescent Cell Viability Assay): 6148 and 6172 and 5912
macrophages; Cpd 0.04 uM
  Macrophage viability (CellTiter-Glo Luminescent Cell Viability Assay): 6288 and 6072 and 6264
macrophages; Cpd 0.2 uM
  Macrophage viability (CellTiter-Glo Luminescent Cell Viability Assay): 7260 and 6072 and 5756
macrophages; Cpd 1 uM
  Macrophage viability (CellTiter-Glo Luminescent Cell Viability Assay): 6052 and 6020 and 6088
macrophages; Cpd 5 uM
  Macrophage viability (CellTiter-Glo Luminescent Cell Viability Assay): 5760 and 5660 and 6120
macrophages; Cpd 25 uM
  Macrophage viability (CellTiter-Glo Luminescent Cell Viability Assay): 4696 and 4596 and 4776
macrophages; Cpd 50 uM
  Macrophage viability (CellTiter-Glo Luminescent Cell Viability Assay): 1240 and 1132 and 1108
macrophages; dose as high as 50 μM
  toxicity to macrophages: showed toxicity
macrophages; dose lower than 10 μM
  toxicity to macrophages: little toxic
CD47; 0.008 uM
  Mean Fluorescence Intensity (MFI) CD47: 7873
CD47; 0.04 uM
  Mean Fluorescence Intensity (MFI) CD47: 6201
CD47; 0.2 uM
  Mean Fluorescence Intensity (MFI) CD47: 5206
CD47; 1 uM
  Mean Fluorescence Intensity (MFI) CD47: 4232
CD47; 5 uM
  Mean Fluorescence Intensity (MFI) CD47: 3540
CD47; dose of 5 μM
  inhibition of CD47 expression: ~50%
Toledo Cells; Cpd 0.0016 uM, T4J = 0, R = 0
  macrophage phagocytosis (untreated = 1.00): 1.00
Toledo Cells; Cpd 0.0016 uM, T4J = 0, R = 0.01 ug/ml
  macrophage phagocytosis (untreated = 1.00): 1.45
Toledo Cells; Cpd 0.0016 uM, T4J = 0.1 ug/ml, R = 0
  macrophage phagocytosis (untreated = 1.00): 2.62
Toledo Cells; Cpd 0.0016 uM, T4J = 0.1 ug/ml, R = 0.01 ug/ml
  macrophage phagocytosis (untreated = 1.00): 3.23
Toledo Cells; Cpd 0.008 uM, T4J = 0, R = 0
  macrophage phagocytosis (untreated = 1.00): 1.10
Toledo Cells; Cpd 0.008 uM, T4J = 0, R = 0.01 ug/ml
  macrophage phagocytosis (untreated = 1.00): 1.54
Toledo Cells; Cpd 0.008 uM, T4J = 0.1 ug/ml, R = 0
  macrophage phagocytosis (untreated = 1.00): 2.59
Toledo Cells; Cpd 0.008 uM, T4J = 0.1 ug/ml, R = 0.01 ug/ml
  macrophage phagocytosis (untreated = 1.00): 3.30
Toledo Cells; Cpd 0.04 uM, T4J = 0, R = 0
  macrophage phagocytosis (untreated = 1.00): 1.17
Toledo Cells; Cpd 0.04 uM, T4J = 0, R = 0.01 ug/ml
  macrophage phagocytosis (untreated = 1.00): 1.82
Toledo Cells; Cpd 0.04 uM, T4J = 0.1 ug/ml, R = 0
  macrophage phagocytosis (untreated = 1.00): 2.64
Toledo Cells; Cpd 0.04 uM, T4J = 0.1 ug/ml, R = 0.01 ug/ml
  macrophage phagocytosis (untreated = 1.00): 3.37
Toledo Cells; Cpd 0.2 uM, T4J = 0, R = 0
  macrophage phagocytosis (untreated = 1.00): 1.41
Toledo Cells; Cpd 0.2 uM, T4J = 0, R = 0.01 ug/ml
  macrophage phagocytosis (untreated = 1.00): 1.93
Toledo Cells; Cpd 0.2 uM, T4J = 0.1 ug/ml, R = 0
  macrophage phagocytosis (untreated = 1.00): 2.81
Toledo Cells; Cpd 0.2 uM, T4J = 0.1 ug/ml, R = 0.01 ug/ml
  macrophage phagocytosis (untreated = 1.00): 3.64
Toledo Cells; Cpd 1 uM, T4J = 0, R = 0
  macrophage phagocytosis (untreated = 1.00): 1.56
Toledo Cells; Cpd 1 uM, T4J = 0, R = 0.01 ug/ml
  macrophage phagocytosis (untreated = 1.00): 2.03
Toledo Cells; Cpd 1 uM, T4J = 0.1 ug/ml, R = 0
  macrophage phagocytosis (untreated = 1.00): 2.91
Toledo Cells; Cpd 1 uM, T4J = 0.1 ug/ml, R = 0.01 ug/ml
  macrophage phagocytosis (untreated = 1.00): 3.65

Reference: patent US20230174649A1, “PHARMACEUTICAL COMPOSITIONS CONTAINING ANTI-CD47 ANTIBODIES” (I-MAB BIOPHARMA US LIMITED, priority 2020, published 2023)
